# According to publication PMC8536124 (International Journal of Molecular Sciences, 2021):
# Legend:
# COLO 205 = experiment: NCI-60 screening (SRB); type: cell-based, human; conditions: five-dose
# IGROV1 = experiment: NCI-60 screening (SRB); type: cell-based, human
# SK-MEL-2 = experiment: NCI-60 screening (SRB); type: cell-based, human; conditions: five-dose
# OVCAR-5 = experiment: NCI-60 screening (SRB); type: cell-based, human; conditions: five-dose
# PC-3 = experiment: NCI-60 screening (SRB); type: cell-based, human; conditions: five-dose
# NCI-H460 = experiment: NCI-60 screening (SRB); type: cell-based, human; conditions: five-dose
# MDA-MB-31/ATCC = experiment: NCI-60 screening (SRB); type: cell-based, human; conditions: five-dose
# UACC-62 = experiment: NCI-60 screening (SRB); type: cell-based, human; conditions: five-dose
# SK-OV-3 = experiment: NCI-60 screening (SRB); type: cell-based, human; conditions: five-dose
# MDA-MB-468 = experiment: NCI-60 screening (SRB); type: cell-based, human; conditions: five-dose
# SNB-19 = experiment: NCI-60 screening (SRB); type: cell-based, human; conditions: five-dose
# RPMI-8226 = experiment: NCI-60 screening (SRB); type: cell-based, human; conditions: five-dose
# UO-31 = experiment: NCI-60 screening (SRB); type: cell-based, human; conditions: five-dose
# SN12C = experiment: NCI-60 screening (SRB); type: cell-based, human; conditions: five-dose
# MCF7 = experiment: NCI-60 screening (SRB); type: cell-based, human; conditions: five-dose
# NCI/ADR-RES = experiment: NCI-60 screening (SRB); type: cell-based, human; conditions: five-dose
# CNS cancer = experiment: cells; type: cell-based
# Excerpt: The experimental data allow the assessment of the cytostatic effect, indicated by growth inhibition values ranging between 0 and 100, as well as of the cytotoxic effect, indicated by negative values.
# The mean GI50 (molar concentration of the compound that inhibits 50% net cell growth), TGI (molar concentration of the compound leading to the total inhibition), and LC50 (molar concentration of the compound leading to 50% net cell death (presented in negative logarithm)) values across each cell line are shown in Table 2.
# The selectivity index (SI), calculated as the ratio between the full panel MG_MID60 (μM) of compounds 4, 6, and 9 by their respective subpanels MG_MID of the cell line (μM), was introduced as a quantification tool for the selectivity of each compound in terms of anticancer effect (Table 3).
# Primary anticancer assays were performed according to the NCI protocol, as described elsewhere (see e.g., http://dtp.nci.nih.gov accessed on 1 November 2018). The compounds were added at a single concentration, and the cell cultures were incubated for 48 h. The end point determinations were made with a protein-binding dye, sulforhodamine B (SRB). […] The percentage of growth was evaluated spectrophotometrically versus controls not treated with test agents after 48 h exposure and using SRB protein assay to estimate cell viability or growth. Three antitumor activity dose-response parameters were calculated for each cell line. Furthermore, mean graph midpoints (MG_MID) were calculated for each of the parameters, giving an average activity parameter over all cell lines for the tested compound. For the MG_MID calculation, insensitive cell lines were included with the highest concentration tested.
# SF-539 = experiment: NCI-60 screening (SRB); type: cell-based, human; conditions: SF-539, five-dose
# U251 = experiment: NCI-60 screening (SRB); type: cell-based, human; conditions: U251, five-dose
# HS 578T = experiment: NCI-60 screening (SRB); type: cell-based, human; conditions: five-dose
# HOP-92 = experiment: NCI-60 screening (SRB); type: cell-based, human; conditions: five-dose
# SF-295 = experiment: NCI-60 screening (SRB); type: cell-based, human; conditions: five-dose
# BT-549 = experiment: NCI-60 screening (SRB); type: cell-based, human; conditions: five-dose
# T-47D = experiment: NCI-60 screening (SRB); type: cell-based, human; conditions: five-dose
# OVCAR-4 = experiment: NCI-60 screening (SRB); type: cell-based, human; conditions: five-dose
# K-562 = experiment: NCI-60 screening (SRB); type: cell-based, human
# NCI-H522 = experiment: NCI-60 screening (SRB); type: cell-based, human; conditions: five-dose
# [1] = Homo sapiens, read-out: LC50 (the source's name)
structure (smiles),measurement,setting,value
"CCN1CCN(C(=O)[C@]23CC[C@@H](C)[C@H](C)[C@H]2C2=CC[C@@H]4[C@@]5(C)C/C(=C/c6cccnc6)C(=O)C(C)(C)[C@@H]5CC[C@@]4(C)[C@]2(C)CC3)CC1 [Compound 9, N-(2-{3-Pyridinylidene}-3-oxoursan-12-en-28-oyl)-ethylpiperazine]",GI50,COLO 205; Homo sapiens,2.19 µM
same,CC50,COLO 205; [1],> 100 µM
same,TGI,COLO 205,5.12 µM
same,GI50,"IGROV1; Homo sapiens, IGROV-1, five-dose",1.89 µM
same,CC50,"IGROV1; Homo sapiens, IGROV-1, five-dose, read-out: LC50 (the source's name)",7.94 µM
same,TGI,IGROV1; five-dose,3.87 µM
same,GI50,SK-MEL-2; Homo sapiens,2.12 µM
same,CC50,SK-MEL-2; [1],65.5 µM
same,TGI,SK-MEL-2,4.76 µM
same,GI50,OVCAR-5; Homo sapiens,1.54 µM
same,CC50,OVCAR-5; [1],5.57 µM
same,TGI,OVCAR-5,2.93 µM
same,GI50,PC-3; Homo sapiens,1.49 µM
same,CC50,PC-3; [1],9.92 µM
same,TGI,PC-3,3.85 µM
same,GI50,NCI-H460; Homo sapiens,1.78 µM
same,CC50,NCI-H460; [1],6.69 µM
same,TGI,NCI-H460,3.45 µM
same,GI50,MDA-MB-31/ATCC; Homo sapiens,1.75 µM
same,CC50,MDA-MB-31/ATCC; [1],7.39 µM
same,TGI,MDA-MB-31/ATCC,3.59 µM
same,GI50,UACC-62; Homo sapiens,1.51 µM
same,CC50,UACC-62; [1],5.8 µM
same,TGI,UACC-62,2.96 µM
same,GI50,SK-OV-3; Homo sapiens,2.7 µM
same,CC50,SK-OV-3; [1],90.1 µM
same,TGI,SK-OV-3,9.02 µM
same,GI50,MDA-MB-468; Homo sapiens,1.65 µM
same,CC50,MDA-MB-468; [1],7.1 µM
same,TGI,MDA-MB-468,3.43 µM
same,GI50,SNB-19; Homo sapiens,1.79 µM
same,CC50,SNB-19; [1],7.82 µM
same,TGI,SNB-19,3.74 µM
same,GI50,RPMI-8226; Homo sapiens,2.45 µM
same,CC50,RPMI-8226; [1],> 100 µM
same,TGI,RPMI-8226,7.38 µM
same,GI50,UO-31; Homo sapiens,1.36 µM
same,CC50,UO-31; [1],5.19 µM
same,TGI,UO-31,2.65 µM
same,GI50,SN12C; Homo sapiens,1.61 µM
same,CC50,SN12C; [1],5.66 µM
same,TGI,SN12C,3.01 µM
same,GI50,MCF7; Homo sapiens,1.64 µM
same,CC50,MCF7; [1],7.14 µM
same,TGI,MCF7,3.42 µM
same,GI50,NCI/ADR-RES; Homo sapiens,1.59 µM
same,CC50,NCI/ADR-RES; [1],6.91 µM
same,TGI,NCI/ADR-RES,3.31 µM
same,TGI MG_MID,"CNS cancer; CNS cancer subpanel, five-dose",4.41 µM
same,SI (TGI),"CNS cancer; CNS cancer, MG_MID60/subpanel MG_MID",1.20
same,GI50,"CNS cancer; Homo sapiens, CNS cancer subpanel, five-dose, read-out: GI50 MG_MID",1.71 µM
same,CC50,"CNS cancer; Homo sapiens, CNS cancer subpanel, five-dose, read-out: LC50 MG_MID",13.6 µM
same,GI50,SF-539; Homo sapiens,1.66 µM
same,CC50,SF-539; [1],5.58 µM
same,TGI,SF-539,3.05 µM
same,GI50,"U251; Homo sapiens, U-251",1.82 µM
same,TGI,U251,3.67 µM
same,GI50,HS 578T; Homo sapiens,1.91 µM
same,CC50,HS 578T; [1],> 100 µM
same,TGI,HS 578T,4.77 µM
same,GI50,HOP-92; Homo sapiens,1.57 µM
same,CC50,HOP-92; [1],38.8 µM
same,TGI,HOP-92,5.73 µM
same,GI50,SF-295; Homo sapiens,1.63 µM
same,CC50,SF-295; [1],5.7 µM
same,TGI,SF-295,3.05 µM
same,GI50,BT-549; Homo sapiens,1.69 µM
same,TGI,BT-549,3.59 µM
same,GI50,"T-47D; Homo sapiens, T47D",2.79 µM
same,LC50 (concentration killing 50% of cells),"T-47D; Homo sapiens, T47D",> 100 µM
same,TGI,T-47D,13.4 µM
same,GI50,OVCAR-4; Homo sapiens,2.57 µM
same,CC50,OVCAR-4; [1],36.6 µM
same,TGI,OVCAR-4,7.36 µM
same,GI50,"K-562; Homo sapiens, K562, five-dose",2.08 µM
same,CC50,"K-562; Homo sapiens, K562, five-dose, read-out: LC50 (the source's name)",> 100 µM
same,TGI,K-562; five-dose,5.00 µM
same,GI50,NCI-H522; Homo sapiens,1.66 µM
same,TGI,NCI-H522,3.86 µM
